This is an account of results in US6756387B2, “Hydroxyphenyl-piperidin-4-ylidene-methyl-benzamide derivatives for the treatment of pain” (AstraZeneca AB, priority 2000, dated 2004).

Common to all, as to type: biochemical
Assay [1] concerns the target T1, cloned human δ receptor (HDELTA) (Homo sapiens, UniProt P41143).
T1 construct: expressed in transfected cells; host or cells: human 293S (HEK-293S) cells, geneticin-selected
The assay can be described thus: GTP[γ]35S binding functional assay, membranes from HEK-293S cells expressing cloned human opioid receptors. The note with it: HEK-293S membranes, read-out: HDELTA % E Max. How it is done: A. Human 293S cells expressing cloned human μ, δ, and κ receptors and neomycin resistance were grown in suspension at 37° C. and 5% CO2 in shaker flasks containing calcium-free DMEM10% FBS, 5% BCS, 0.1% Pluronic F-68, and 600 μg/ml geneticin.
Cells were pelleted and resuspended in lysis buffer (50 mM Tris, pH 7.0, 2.5 mM EDTA, with PMSF added just prior to use to 0.1 mM from a 0.1 M stock in ethanol), incubated on ice for 15 min, then homogenized with a polytron for 30 sec. The suspension was spun at 1,000 g (max) for 10 min at 4° C. The supernatant was saved on ice and the pellets resuspended and spun as before. The supernatants from both spins were combined and spun at 46,000 g(max) for 30 min. The pellets were resuspended in cold Tris buffer (50 mM Tris/Cl, pH 7.0) and spun again. The final pellets were resuspended in membrane buffer (50 mM Tris, 0.32 M sucrose, pH 7.0). Aliquots (1 ml) in polypropylene tubes were frozen in dry ice/ethanol and stored at −70° C. until use. The protein concentrations were determined by a modified Lowry assay with SDS.
(§1) The agonist activity of the compounds is measured by determining the degree to which the compounds receptor complex activates the binding of GTP to G-proteins to which the receptors are coupled. In the GTP binding assay, GTP[γ]^35S is combined with test compounds and membranes from HEK-293S cells expressing the cloned human opioid receptors or from homogenised rat and mouse brain. Agonists stimulate GTP[γ]^35S binding in these membranes. The EC50 and Emax values of compounds are determined from dose-response curves. Right shifts of the dose response curve by the delta antagonist naltrindole are performed to verify that agonist activity is mediated through delta receptors.

The target of assay [2] is T2, delta receptors, rat brain membranes (Rattus norvegicus, UniProt P33533).
T2 construct: from tissue; host or cells: rat brain homogenate
In words: GTP[γ]35S binding functional assay, homogenised rat brain. The note with it: rat brain homogenate, read-out: RAT BRAIN % E Max. As for the experimental part: (§2) B. Mouse and rat brains were weighed and rinsed in ice-cold PBS (containing 2.5 mM EDTA, pH 7.4). The brains were homogenized with a polytron for 15 sec (mouse) or 30 sec (rat) in ice-cold lysis buffer (50 mM Tris, pH 7.0, 2.5 mM EDTA, with phenylmethylsulfonyl fluoride added just prior use to […] from a 0.5M stock in DMSO:ethanol).
as §1
A general note: GTPγS is a poorly hydrolysed GTP analogue; its binding reports G protein activation.

In assay [3] the target is T3, delta receptors, mouse brain membranes (Mus musculus, UniProt P32300).
T3 construct: from tissue; host or cells: mouse brain homogenate
The assay can be described thus: GTP[γ]35S binding functional assay, homogenised mouse brain. As to conditions: mouse brain homogenate, read-out: MOUSE BRAIN % E Max. As for the experimental part:
as §2, §1

The structures appear in SMILES notation.

T3 sequence (P32300 whole entry): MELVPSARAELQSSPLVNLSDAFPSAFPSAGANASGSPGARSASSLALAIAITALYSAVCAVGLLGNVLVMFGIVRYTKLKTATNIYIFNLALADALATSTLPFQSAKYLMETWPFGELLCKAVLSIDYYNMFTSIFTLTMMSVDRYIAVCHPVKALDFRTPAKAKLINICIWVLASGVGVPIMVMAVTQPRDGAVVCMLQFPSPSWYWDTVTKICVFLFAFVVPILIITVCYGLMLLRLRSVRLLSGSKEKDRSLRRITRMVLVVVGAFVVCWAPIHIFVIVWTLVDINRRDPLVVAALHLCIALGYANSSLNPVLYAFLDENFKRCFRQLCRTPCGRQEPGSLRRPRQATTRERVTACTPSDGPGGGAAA
T1 sequence (P41143 whole entry): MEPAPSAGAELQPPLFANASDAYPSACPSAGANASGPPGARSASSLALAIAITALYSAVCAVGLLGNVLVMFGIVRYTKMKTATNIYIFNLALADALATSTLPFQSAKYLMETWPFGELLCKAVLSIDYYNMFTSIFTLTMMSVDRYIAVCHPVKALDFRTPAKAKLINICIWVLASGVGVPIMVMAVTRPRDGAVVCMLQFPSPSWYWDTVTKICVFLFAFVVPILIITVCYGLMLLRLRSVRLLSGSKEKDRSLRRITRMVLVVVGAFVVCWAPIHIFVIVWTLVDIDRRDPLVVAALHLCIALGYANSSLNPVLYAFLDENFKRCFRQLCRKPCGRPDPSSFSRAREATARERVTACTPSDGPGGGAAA
T2 sequence (P33533 whole entry): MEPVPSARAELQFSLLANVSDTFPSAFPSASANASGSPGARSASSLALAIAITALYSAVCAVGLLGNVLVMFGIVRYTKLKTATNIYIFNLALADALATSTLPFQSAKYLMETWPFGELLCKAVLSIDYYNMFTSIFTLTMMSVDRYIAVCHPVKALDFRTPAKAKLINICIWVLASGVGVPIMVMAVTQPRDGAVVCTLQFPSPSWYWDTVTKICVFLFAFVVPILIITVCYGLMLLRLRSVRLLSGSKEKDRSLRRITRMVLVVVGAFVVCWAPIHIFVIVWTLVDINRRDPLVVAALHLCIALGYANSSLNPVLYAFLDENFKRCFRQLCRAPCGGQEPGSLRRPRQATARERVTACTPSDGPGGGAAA

`CCN(CC)C(=O)c1ccc(C(=C2CCN(Cc3nccs3)CC2)c2cccc(O)c2)cc1` [Example 11, N,N-diethyl-4-{(3-hydroxyphenyl)[1-(1,3-thiazol-2-ylmethyl)-4-piperidinylidene]methyl}benzamide]: the Emax came to 115% in assay [1], 120% in assay [2] and 118% in assay [3].
The corresponding values for `CCN(CC)C(=O)c1ccc(C(=C2CCN(Cc3cccs3)CC2)c2cccc(O)c2)cc1` [Example 3, N,N-diethyl-4-{(3-hydroxyphenyl)[1-(2-thienylmethyl)-4-piperidinylidene]methyl}benzamide] are 98.2%, 168% and 186%.
As for `CCN(CC)C(=O)c1ccc(C(=C2CCN(Cc3ccccc3)CC2)c2cccc(O)c2)cc1` [Example 2, N,N-diethyl-4-(3-hydroxylphenyl-N-benzyl-piperidin-4-ylidene-methyl)-benzamide], the Emax in assay [1] stood at 104%; in assay [2] it was 112%; in assay [3], 104%.
As to `CCN(CC)C(=O)c1ccc(C(=C2CCN(Cc3c[nH]cn3)CC2)c2cccc(O)c2)cc1` [Example 10, N,N-diethyl-4-{(3-hydroxyphenyl)[1-(1H-imidazol-4-ylmethyl)-4-piperidinylidene]methyl}benzamide], the Emax in assay [1] was 107%; in assay [2] it was 102%; in assay [3], 104%.
With `CCN(CC)C(=O)c1ccc(C(=C2CCN(Cc3ccco3)CC2)c2cccc(O)c2)cc1` [Example 5, N,N-diethyl-4-[[1-(2-furylmethyl)-4-piperidinylidene](3-hydroxyphenyl)methyl]benzamide], the Emax in assay [1] is 94.8%; in assay [2], 132%; in assay [3], 134%.
With `CCN(CC)C(=O)c1ccc(C(=C2CCN(Cc3ccccn3)CC2)c2cccc(O)c2)cc1` [Example 7, N,N-diethyl-4-{(3-hydroxyphenyl)[1-(2-pyridinylmethyl)-4-piperidinylidene]methyl}benzamide], the Emax amounted to 103% in assay [1], 135% in assay [2] and 138% in assay [3].
The corresponding values for `CCN(CC)C(=O)c1ccc(C(=C2CCN(Cc3ncc[nH]3)CC2)c2cccc(O)c2)cc1` [Example 9, N,N-diethyl-4-{(3-hydroxyphenyl)[1-(1H-imidazol-2-ylmethyl)-4-piperidinylidene]methyl}benzamide] are 106%, 151% and 136%.
In the case of `CCN(CC)C(=O)c1ccc(C(=C2CCN(Cc3ccncc3)CC2)c2cccc(O)c2)cc1` [Example 8, N,N-diethyl-4-{(3-hydroxyphenyl)[1-(4-pyridinylmethyl)-4-piperidinylidene]methyl}benzamide], the Emax in assay [1] was 112%; in assay [2] it was 81.4%; in assay [3] it was 78.2%.
